Tests used:
[1] = biological target: T1, Adrenergic β2 (Homo sapiens, UniProt P07550); assay: Adrenergic β2 mediated cAMP production in H292 cells, single concentration 1 μM; type: cell-based; conditions: NCI-H292, 1 μM compound, cAMP as percentage of the maximum response generated by 1E-07M formoterol, read-out: β2 % effect @1 uM
T1 construct: Adherent H292 cells are removed from tissue culture flasks by treatment with Accutase™ cell detachment solution; endogenous in cells; host or cells: H292 cells
Method: The following experimental procedure was used to measure the beta-2% effect at 1 μM for the compounds of Examples 99-175. Adrenergic p2 Mediated cAMP Production Cell Preparation
H292 cells are grown in 225 cm2 flasks incubator at 37° C., 5% CO2 in RPMI medium containing 10% (v/v) FBS (foetal bovine serum) and 2 mM L-glutamine.
Compounds are prepared by an initial first dilution into DMSO to give 1 mM stock concentration. This is followed by a 1 in 10 dilution of the stock concentration (10 μl stock compound +90 μl DMSO) to give 0.1 mM compound. A compound addition plate is prepared by making a further 1 in 25 dilution in assay buffer (HBSS solution containing 10 mM HEPES pH7.4 and 5 mM glucose) containing 4% dimethylsulfoxide. The final compound concentration in assay is 1 μM.
Adherent H292 cells are removed from tissue culture flasks by treatment with Accutase™ cell detachment solution for 15 minutes. Flasks are incubated for 15 minutes in a humidified incubator at 37° C., 5% CO2. Detached cells are re-suspended in RPMI media (containing 10% (v/v) FBS and 2 mM L-glutamine) at 0.1×10^6 cells per mL. 10000 cells in 100 μL are added to each well of a tissue-culture-treated 96-well plate and the cells incubated overnight in a humidified incubator at 37° C., 5% CO2. The culture media is removed and cells are washed twice with 100 μL assay buffer and replaced with 50 μL assay buffer (HBSS solution containing 10 mM HEPES pH7.4 and 5 mM glucose). Cells are rested at room temperature for 20 minutes after which time 25 μL of rolipram (1.2 mM made up in assay buffer) is added. Cells are incubated with rolipram for 10 minutes after which time 25 μl test compounds are added and the cells are incubated for 60 minutes at room temperature. The final rolipram concentration in the assay is 300 μM and final vehicle concentration is 1% (v/v) dimethylsulphoxide. The reaction is stopped by removing supernatants, washing once with 100 μL assay buffer and replacing with 50 μL lysis buffer. The cell monolayer is frozen at −80° C. for 30 minutes (or overnight).
AlphaScreen™ cAMP Detection
The concentration of cAMP (cyclic adenosine monophosphate) in the cell lysate is determined using AlphaScreen™ methodology. The frozen cell plate is thawed for 20 minutes on a plate shaker then 10 μL of the cell lysate is transferred to a 96-well white plate. 40 μl of mixed AlphaScreen™ detection beads (containing equal volumes of donor beads (pre-incubated with biotinylated cAMP in the dark for 30 minutes) and acceptor beads is added to each well and the plate incubated at room temperature for 3 hours in the dark. The AlphaScreen™ signal is measured using an EnVision spectrophotometer (Perkin-Elmer Inc.) with the recommended manufacturer's settings. Concentration of cAMP produced per well were calculated with reference to the cAMP standard curve determined in the same experiment and expressed as a percentage of the maximum response generated by 1E-07M formoterol.

[2] = biological target: T2, human muscarinic acetylcholine M3 receptor (Homo sapiens, UniProt P20309); assay: Muscarinic 3 receptor binding assay ([3H]NMS competition, SPA), single concentration 1 μM; conditions: 1 μM compound; % inhibition specific [3H]-NMS binding
T2 construct: expressed in transfected cells; host or cells: CHO-K1 (Chinese Hamster Ovary) cell membranes
Method: The following experimental procedure was used to determine the M3% inhibition at 1 μM of the compounds of Examples 99-175
Muscarinic 3 Receptor Binding Assay
The activity (% inhibition specific binding) of compounds on the M3 receptor is determined by competition binding of [^3H]N-methyl scopolamine (NMS) to CHO-K1 (Chinese Hamster Ovary) cell membranes expressing the human muscarinic acetylcholine M3 receptor (M3-ACh) in a scintillation proximity assay (SPA) format. SPA beads are precoated with membranes and then incubated at 2 mg of beads per well with 1 μM compound of the invention, [^3H]NMS at 0.1 nM, quarter Kd (experimentally determined dissociation constant) and assay buffer (20 mM HEPES pH 7.4 containing 5 mM MgCl2 and 0.1% (w/v) bovine serum albumin). The assay is conducted in a final volume of 200 μL, in the presence of 1% (v/v) dimethyl sulphoxide (DMSO). Total binding of [^3H]NMS is determined in the absence of competing compound and non-specific binding of [^3H]NMS is determined in the presence of 1 μM atropine. The plates are incubated for 16 hours at room temperature and then read on Wallac Microbeta™ using a normalised ^3H protocol. The compound activity at 1 μM, defined as % inhibition specific [^3H]-NMS binding, is determined.

T1 sequence (P07550 whole entry): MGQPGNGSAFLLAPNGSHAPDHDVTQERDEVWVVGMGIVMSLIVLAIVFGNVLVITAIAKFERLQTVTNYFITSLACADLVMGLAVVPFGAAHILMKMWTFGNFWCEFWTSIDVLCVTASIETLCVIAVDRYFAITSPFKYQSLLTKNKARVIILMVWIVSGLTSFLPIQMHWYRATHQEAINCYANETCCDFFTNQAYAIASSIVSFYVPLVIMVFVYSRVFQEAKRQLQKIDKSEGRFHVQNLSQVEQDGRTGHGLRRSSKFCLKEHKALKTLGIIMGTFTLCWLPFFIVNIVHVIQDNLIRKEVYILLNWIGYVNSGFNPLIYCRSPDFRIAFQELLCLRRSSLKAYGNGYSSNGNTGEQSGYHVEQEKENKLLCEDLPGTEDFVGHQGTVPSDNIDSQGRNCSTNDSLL
T2 sequence (P20309 whole entry): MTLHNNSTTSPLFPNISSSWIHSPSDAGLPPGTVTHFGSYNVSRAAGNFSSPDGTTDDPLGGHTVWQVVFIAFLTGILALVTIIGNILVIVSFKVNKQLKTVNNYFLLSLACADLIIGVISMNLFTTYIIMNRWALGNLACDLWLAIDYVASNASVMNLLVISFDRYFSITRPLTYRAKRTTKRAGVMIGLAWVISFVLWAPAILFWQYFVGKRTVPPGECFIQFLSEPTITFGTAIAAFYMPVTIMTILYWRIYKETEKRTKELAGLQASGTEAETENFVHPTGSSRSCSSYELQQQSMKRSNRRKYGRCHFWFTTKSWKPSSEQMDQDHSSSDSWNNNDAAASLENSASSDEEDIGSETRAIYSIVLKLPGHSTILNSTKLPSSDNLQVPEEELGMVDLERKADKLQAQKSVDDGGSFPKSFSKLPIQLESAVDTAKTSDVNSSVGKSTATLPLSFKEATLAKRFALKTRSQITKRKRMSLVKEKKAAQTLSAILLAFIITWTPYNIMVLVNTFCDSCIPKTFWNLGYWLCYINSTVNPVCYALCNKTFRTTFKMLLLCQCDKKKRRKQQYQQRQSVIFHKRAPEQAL

| Compound | percent of formoterol maximum response at 1 µM [1] | inhibition at 1 µM [2] |
| --- | --- | --- |
| O=C1COc2c(CCNCCN(C(=O)CCOCCc3cccc(CN4CCC5(CC4)CN(C(=O)c4n[nH]c6ccccc46)CCO5)c3)C3CCCCC3)ccc(O)c2N1 [Example 120, 3-(3-((4-(1H-Indazole-3-carbonyl)-1-oxa-4,9-diazaspiro[5.5]undecan-9-yl)methyl)phenethoxy)-N-cyclohexyl-N-(2-(2-(5-hydroxy-3-oxo-3,4-dihydro-2H-benzo[b][1,4]oxazin-8-yl)ethylamino)ethyl)propanamide] | 97% | 101% |
| O=C1COc2c(CCNCCN(C(=O)CCOCCc3cccc(CN4CCC5(CC4)CN(C(=O)c4cnccc4C(F)(F)F)CCO5)c3)C3CCCCC3)ccc(O)c2N1 [Example 121, N-Cyclohexyl-N-(2-(2-(5-hydroxy-3-oxo-3,4-dihydro-2H-benzo[b][1,4]oxazin-8-yl)ethylamino)ethyl)-3-(3-((4-(4-(trifluoromethyl)nicotinoyl)-1-oxa-4,9-diazaspiro[5.5]undecan-9-yl)methyl)phenethoxy)propanamide] | 84% | 88% |
| O=C1COc2c(CCNCCN(C(=O)CCOCCc3cccc(CN4CCC5(CC4)CN(C(=O)c4ccc(-n6cccn6)cc4)CCO5)c3)C3CCCCC3)ccc(O)c2N1 [Example 122, 3-(3-((4-(4-(1H-Pyrazol-1-yl)benzoyl)-1-oxa-4,9-diazaspiro[5.5]undecan-9-yl)methyl)phenethoxy)-N-cyclohexyl-N-(2-(2-(5-hydroxy-3-oxo-3,4-dihydro-2H-benzo[b][1,4]oxazin-8-yl)ethylamino)ethyl)propanamide] | 87% | 84% |
| O=C1COc2c(CCNCCN(C(=O)CCOCCc3cccc(CN4CCC5(CC4)CN(C(=O)c4[nH]nc6c4CCCC6)CCO5)c3)C3CCCCC3)ccc(O)c2N1 [Example 123, N-Cyclohexyl-N-(2-(2-(5-hydroxy-3-oxo-3,4-dihydro-2H-benzo[b][1,4]oxazin-8-yl)ethylamino)ethyl)-3-(3-((4-(4,5,6,7-tetrahydro-2H-indazole-3-carbonyl)-1-oxa-4,9-diazaspiro[5.5]undecan-9-yl)methyl)phenethoxy)propanamide] | 97% | 99% |
| O=C1COc2c(CCNCCN(C(=O)CCOCCc3cccc(CN4CCC5(CC4)CN(C(=O)Cc4noc6ccccc46)CCO5)c3)C3CCCCC3)ccc(O)c2N1 [Example 124, 3-(3-((4-(2-(Benzo[d]isoxazol-3-yl)acetyl)-1-oxa-4,9-diazaspiro[5.5]undecan-9-yl)methyl)phenethoxy)-N-cyclohexyl-N-(2-(2-(5-hydroxy-3-oxo-3,4-dihydro-2H-benzo[b][1,4]oxazin-8-yl)ethylamino)ethyl)propanamide] | 101% | 100% |
| O=C1COc2c(CCNCCN(C(=O)CCOCCc3cccc(CN4CCC5(CC4)CN(C(=O)Cn4cnc6ccccc64)CCO5)c3)C3CCCCC3)ccc(O)c2N1 [Example 125, 3-(3-((4-(2-(1H-Benzo[d]imidazol-1-yl)acetyl)-1-oxa-4,9-diazaspiro[5.5]undecan-9-yl)methyl)phenethoxy)-N-cyclohexyl-N-(2-(2-(5-hydroxy-3-oxo-3,4-dihydro-2H-benzo[b][1,4]oxazin-8-yl)ethylamino)ethyl)propanamide] | 114% | 93% |
| O=C1COc2c(CCNCCN(C(=O)CCOCCc3cccc(CN4CCC5(CC4)CN(C(=O)COCc4nc6ccccc6s4)CCO5)c3)C3CCCCC3)ccc(O)c2N1 [Example 126, 3-(3-((4-(2-(Benzo[d]thiazol-2-ylmethoxy)acetyl)-1-oxa-4,9-diazaspiro[5.5]undecan-9-yl)methyl)phenethoxy)-N-cyclohexyl-N-(2-(2-(5-hydroxy-3-oxo-3,4-dihydro-2H-benzo[b][1,4]oxazin-8-yl)ethylamino)ethyl)propanamide] | 103% | 101% |
| Cc1ccccc1OCC(=O)N1CCOC2(CCN(Cc3cccc(CCOCCC(=O)N(CCNCCc4ccc(O)c5c4OCC(=O)N5)C4CCCCC4)c3)CC2)C1 [Example 127, N-Cyclohexyl-N-(2-(2-(5-hydroxy-3-oxo-3,4-dihydro-2H-benzo[b][1,4]oxazin-8-yl)ethylamino)ethyl)-3-(3-((4-(2-(o-tolyloxy)acetyl)-1-oxa-4,9-diazaspiro[5.5]undecan-9-yl)methyl)phenethoxy)propanamide] | 110% | 97% |
| O=C1COc2c(CCNCCN(C(=O)CCOCCc3cccc(CN4CCC5(CC4)CN(C(=O)[C@@H](O)C4CCCCC4)CCO5)c3)C3CCCCC3)ccc(O)c2N1 [Example 129, (S)-N-Cyclohexyl-3-(3-((4-(2-cyclohexyl-2-hydroxyacetyl)-1-oxa-4,9-diazaspiro[5.5]undecan-9-yl)methyl)phenethoxy)-N-(2-(2-(5-hydroxy-3-oxo-3,4-dihydro-2H-benzo[b][1,4]oxazin-8-yl)ethylamino)ethyl)propanamide] | 110% | 99% |
| O=C1COc2c(CCNCCN(C(=O)CCOCCc3cccc(CN4CCC5(CC4)CN(C(=O)[C@H](O)c4cccc(Cl)c4)CCO5)c3)C3CCCCC3)ccc(O)c2N1 [Example 130, (R)-3-(3-((4-(2-(3-Chlorophenyl)-2-hydroxyacetyl)-1-oxa-4,9-diazaspiro[5.5]undecan-9-yl)methyl)phenethoxy)-N-cyclohexyl-N-(2-(2-(5-hydroxy-3-oxo-3,4-dihydro-2H-benzo[b][1,4]oxazin-8-yl)ethylamino)ethyl)propanamide] | 114% | 99% |
| O=C1COc2c(CCNCCN(C(=O)CCOCCc3cccc(CN4CCC5(CC4)CN(C(=O)CC4C[C@@H]6CC[C@H]4C6)CCO5)c3)C3CCCCC3)ccc(O)c2N1 (stereo partly drawn) [Example 131, 3-(3-((4-(2-((1S,4R)-Bicyclo[2.2.1]heptan-2-yl)acetyl)-1-oxa-4,9-diazaspiro[5.5]undecan-9-yl)methyl)phenethoxy)-N-cyclohexyl-N-(2-(2-(5-hydroxy-3-oxo-3,4-dihydro-2H-benzo[b][1,4]oxazin-8-yl)ethylamino)ethyl)propanamide] | 97% | 99% |
| O=C1COc2c(CCNCCN(C(=O)CCOCCc3cccc(CN4CCC5(CC4)CN(C(=O)c4cc(Br)c[nH]4)CCO5)c3)C3CCCCC3)ccc(O)c2N1 [Example 132, 3-(3-((4-(4-Bromo-1H-pyrrole-2-carbonyl)-1-oxa-4,9-diazaspiro[5.5]undecan-9-yl)methyl)phenethoxy)-N-cyclohexyl-N-(2-(2-(5-hydroxy-3-oxo-3,4-dihydro-2H-benzo[b][1,4]oxazin-8-yl)ethylamino)ethyl)propanamide] | 96% | 101% |

Reference: patent US8476265B2, “Compounds-801” (AstraZeneca AB, priority 2010, dated 2013)
